# US20210292410A1, “TREATMENT PARADIGM FOR AN ANTI-CD19 ANTIBODY AND VENETOCLAX COMBINATION TREATMENT” (MorphoSys AG, priority 2017, published 2021)
# Experiments:
# [1] = tested on: CYP17; test: Endocrine panel (progesterone) in ER+ breast cancer patients; assay type: in vivo, human; settings: vs. patients treated with abiraterone and prednisone (Abi/Pred), FIG. 20
# Method: Subjects that fulfill the Inclusion Criteria captured in Table 4 were administered seviteronel (600 mg for male subjects, 4×150 mg tablets; 450 mg for female subjects, 3×150 mg tablets) once daily until any of the criteria in Table 2 are met. Table 5 captures the clinical screening data and screening schedule for the various screens for each of the male subjects.
# Subjects that fulfill the Inclusion Criteria captured in Table 4 were administered seviteronel (600 mg for male subjects, 4×150 mg tablets; 450 mg for female subjects, 3×150 mg tablets) and dexamethasone (0.5 mg) once daily until any of the criteria in Table 2 are met. Table 5 captures the clinical screening data and screening schedule for the various screens for each of the male subjects.
# (§1) Blood samples were collected for evaluation of steroid hormone changes as a pharmacodynamics indicator of CYP17 inhibition over time (e.g., DHEA, DHEA-S, androstenedione, testosterone, cortisol, corticosterone, progesterone, pregnenolone, estradiol, estrone and ACTH).
# [2] = tested on: CYP17; test: Endocrine panel in prostate cancer patients treated with seviteronel or seviteronel and dexamethasone; assay type: in vivo, human; settings: seviteronel 600 mg once daily, FIG. 7
# Method: Males that fulfill the Inclusion Criteria captured in Table 1 were administered seviteronel (600 mg; 4×150 mg tablets) once daily until any of the criteria in Table 2 are met. Table 3 captures the clinical screening data and screening schedule for the various screens for each of the male subjects.
# Males that fulfill the Inclusion Criteria captured in Table 1 were administered seviteronel (600 mg; 4×150 mg tablets) and dexamethasone (0.5 mg) once daily until any of the criteria in Table 2 are met. Table 3 captures the clinical screening data and screening schedule for the various screens for each of the male subjects.
# as §1
compound,measurement,setting,value
CC(C)[C@](O)(c1ccc2cc(OC(F)F)c(OC(F)F)cc2c1)c1c[nH]nn1 [SEVI],increase in progesterone,[1],lack of clinically relevant increases in progesterone
same,"endocrine profile: ""up-stream"" steroids",[2],limited increase
same,endocrine profile: ACTH,[2],modest ACTH increase
same,endocrine profile: androgen,[2],modest androgen decline
same,endocrine profile: cortisol,[2],modest cortisol decrease
